Experimental data as given in US9394297B2, “Amides as pim inhibitors” (AMGEN INC., priority 2012, dated 2016).
Where a name gives a salt, the structure may show the parent alone.

Experiments:
Pim-1 = Pim-1 (Homo sapiens (Human), UniProt P11309); assay: Pim enzyme assay (HTRF, 96-well), Pim-1; type: biochemical; details: full length recombinant Pim-1, biotinylated-BAD (S112) peptide, 10-point curve, 2 h RT, read-out: Pim-1 IC50 IP
Excerpt: (§1) These cDNAs were used as templates in PCR reactions to produce full-length DNA clones of the PIMs. […] PCR products were digested with BclI and EcoRI for Pim-1 and BamHI and EcoRI for Pim-2 and ligated into a modified baculovirus transfer vector (pFastBac1) cleaved with BamHI and EcoRI. For bacterial expression, the same cleaved PCR products encoding Pim-1 or Pim-2 were ligated into a modified E. coli expression vector pET28(a) cleaved with BamHI and EcoRI. Amino-terminal hexahistidine tags followed by a thrombin cleavage site were previously added to the vectors using standard methods of molecular biology.
(§2) Recombinant baculoviruses expressing Pim-1 or Pim-2 were made using standard methods (Fastbac manual, Invitrogen, Carlsbad, Calif.). […] Cells were harvested by centrifugation and frozen at −80 C. For E. coli expression, cells carrying pET28-His6-Th-Pim-1 or pET28-His6-Th-Pim-2 were picked from a single colony and grown o/n in LB media. The o/n culture was used to inoculate a 2 liter flask with 500 mL media. This was grown o/n and used to inoculate 15-20 liters of Terrific Broth in a New Brunswick Scientific fermentor. The E. coli were grown at 37° C. to and OD600 >1.6. The temperature was dropped to 18° C. and o/n expression was induced with 0.5 mM IPTG. Cells were harvested by centrifugation and frozen at −80° C.
(§3) The slurry was centrifuged at 1,000×g for 5 min, the supernatant decanted, and the resin suspended in 40 mL of lysis wash buffer (lysis buffer at 0.75 M NaCl). This step was repeated 3× and the resin was transferred to a 2.5 cm glass column. Ten column volumes of wash buffer (0.05 M HEPES, pH 8.0, 0.1 M NaCl, 0.01 M 2-mercaptoethanol, 10%(w/v) glycerol) were applied to the resin followed by 10 column volumes of elution buffer (0.05 M HEPES, pH 8.0, 0.25 M NaCl, 0.01 M 2-mercaptoethanol, 10%(w/v) glycerol, 0.1 M imidazole). Fractions were analyzed by SDS-PAGE and those containing the protein of interest were pooled and concentrated. The concentrated protein was applied to an Amersham Superdex 75 (XK 26/60) column equilibrated in 0.025 M Tris-HCl, pH 7.5, 0.1 M NaCl, 0.01 M 2-mercaptoethanol, 10% (w/v) glycerol. […] Fractions containing the monomeric protein of interest were pooled, concentrated to ˜2 mg/mL, and stored at −80° C.
(§4) The phosphorylation of biotinylated-BAD (S112) peptide by full length recombinant Pim-1, Pim-2, or Pim-3 protein was detected with streptavidin:Allophycocyanin (APC) conjugate and a europium (Eu) labeled antibody directed against phosphorylated-BAD (S112). […] The fluorescence is directly proportional to the amount of phosphorylated BAD peptide present in the reaction. […] A reference compound was included on each assay plate in order to validate that plate; on one plate of every assay run, two additional reference compounds were included. The final buffer conditions were as follows: 60 mM Hepes, pH 7.0, 0.05% BSA, 2 mM DTT. Incubations were carried out at RT (22° C.) for 2 h for Pim-1, 1 hour and 30 min for Pim-3, and 45 min for Pim-2. The reaction was stopped by the addition of 3 mM EDTA, and fluorescence was measured by an HTRF® Rubystar microplate reader. For each plate, percent of control (POC) values were calculated for each well. Values for the IC50 IP were estimated using a standard 4-parameter logistic model.

Pim-2 = Pim-2 (Homo sapiens (Human), UniProt Q9P1W9); assay: Pim enzyme assay (HTRF, 96-well), Pim-2; type: biochemical; details: full length recombinant Pim-2, biotinylated-BAD (S112) peptide, 10-point curve, 45 min RT, read-out: Pim-2 IC50 IP
Excerpt: as §1, §2, §3, §4

Sequence of Pim-1 (P11309 whole entry): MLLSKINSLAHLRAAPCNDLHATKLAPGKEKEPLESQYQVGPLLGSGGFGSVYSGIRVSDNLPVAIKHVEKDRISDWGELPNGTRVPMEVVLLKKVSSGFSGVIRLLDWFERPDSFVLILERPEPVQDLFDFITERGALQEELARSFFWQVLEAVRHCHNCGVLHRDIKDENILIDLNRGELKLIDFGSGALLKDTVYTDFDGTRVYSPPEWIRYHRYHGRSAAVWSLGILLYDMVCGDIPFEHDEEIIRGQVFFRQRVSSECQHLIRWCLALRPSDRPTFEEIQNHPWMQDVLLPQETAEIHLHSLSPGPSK
Sequence of Pim-2 (Q9P1W9 whole entry): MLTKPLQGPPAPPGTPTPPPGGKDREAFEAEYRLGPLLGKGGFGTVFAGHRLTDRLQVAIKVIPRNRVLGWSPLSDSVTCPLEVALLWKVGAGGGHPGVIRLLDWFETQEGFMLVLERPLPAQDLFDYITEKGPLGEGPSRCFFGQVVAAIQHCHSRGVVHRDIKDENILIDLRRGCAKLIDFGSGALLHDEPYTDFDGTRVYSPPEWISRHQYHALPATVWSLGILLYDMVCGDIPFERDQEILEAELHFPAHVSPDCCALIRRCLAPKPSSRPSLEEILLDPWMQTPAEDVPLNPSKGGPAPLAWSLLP

Row | Compound | IC50 (Pim-1) [µM] | IC50 (Pim-2) [µM]
1 | O=C1NCCc2[nH]c(-c3cccc4ccc(OC5CCNCC5)nc34)cc21 [Example 81, 2-(2-(piperidin-4-yloxy)quinolin-8-yl)-6,7-dihydro-1H-pyrrolo[3,2-c]pyridin-4(5H)-one] | 0.006 | 0.0956
2 | COC(=O)[C@H](C)Nc1nc2c(-c3cc4c([nH]3)CCNC4=O)cccc2nc1C [Example 136, (S)-methyl 2-((3-methyl-8-(4-oxo-4,5,6,7-tetrahydro-1H-pyrrolo[3,2-c]pyridin-2-yl)quinoxalin-2-yl)amino)propanoate] | 0.0495 | 0.154
3 | Cc1nc2cccc(-c3cc4c([nH]3)CCNC4=O)c2nc1N[C@@H](C)C(N)=O [Example 129, (S)-2-((3-methyl-8-(4-oxo-4,5,6,7-tetrahydro-1H-pyrrolo[3,2-c]pyridin-2-yl)quinoxalin-2-yl)amino)propanamide] | 0.0993 | 0.227
4 | Cc1nc2cccc(-c3cc4c([nH]3)CCNC4=O)c2nc1N1CCCC1 [Example 138, 2-(2-methyl-3-(pyrrolidin-1-yl)quinoxalin-5-yl)-6,7-dihydro-1H-pyrrolo[3,2-c]pyridin-4(5H)-one] | 0.0348 | 0.0301
5 | C=C(c1ccccc1)c1ccc2cccc(-c3cc4c([nH]3)CCNC4=O)c2n1 [Example 113, 2-(2-(1-phenylvinyl)quinolin-8-yl)-6,7-dihydro-1H-pyrrolo[3,2-c]pyridin-4(5H)-one] | 0.0047 | 0.0081
6 | N[C@@H]1CCC[C@H](Nc2ccc3cccc(-c4cc5c([nH]4)CCNC5=O)c3n2)C1 (single isomer, unassigned) [Example 121, 2-(2-((cis-3-aminocyclohexyl)amino)quinolin-8-yl)-6,7-dihydro-1H-pyrrolo[3,2-c]pyridin-4(5H)-one] | 0.0006 | 0.0226
7 | O=C1NCCc2[nH]c(-c3cccc4cnc(Nc5ccccc5)nc34)cc21 [Example 251, 2-(2-(phenylamino)quinazolin-8-yl)-6,7-dihydro-1H-pyrrolo[3,2-c]pyridin-4(5H)-one] | 0.0083 | 0.0135
8 | C[C@H](Nc1ccc2cccc(-c3cc4c([nH]3)CCNC4=O)c2n1)c1ccccc1 [Example 112, (S)-2-(2-((1-phenylethyl)amino)quinolin-8-yl)-6,7-dihydro-1H-pyrrolo[3,2-c]pyridin-4(5H)-one] | 0.029 | 0.182
9 | Cc1cccc(Oc2ccc3cccc(-c4cc5c([nH]4)CCNC5=O)c3n2)c1 [Example 43, 2-(2-(3-methylphenoxy)-8-quinolinyl)-1,5,6,7-tetrahydro-4H-pyrrolo[3,2-c]pyridin-4-one] | 0.0179 | 0.0478
10 | O=C1NCCc2[nH]c(-c3cccc4ccc(Nc5cccc(Cl)c5)nc34)cc21 [Example 40, 2-(2-((3-chlorophenyl)amino)-8-quinolinyl)-1,5,6,7-tetrahydro-4H-pyrrolo[3,2-c]pyridin-4-one] | 0.0018 | 0.0143
11 | O=C1NCCc2[nH]c(-c3cccc4ccc(O[C@@H]5CCCNC5)nc34)cc21 [Example 89, (R)-2-(2-(piperidin-3-yloxy)quinolin-8-yl)-6,7-dihydro-1H-pyrrolo[3,2-c]pyridin-4(5H)-one] | 0.0466 | 0.34
12 | O=C1NCC(Cc2ccccc2)c2[nH]c(-c3cccc4cccnc34)cc21 (racemic) [Example 119, rac-7-benzyl-2-(quinolin-8-yl)-6,7-dihydro-1H-pyrrolo[3,2-c]pyridin-4(5H)-one] | 0.0394 | 0.206
13 | Cc1cccc(C)c1Oc1ccc2cccc(-c3cc4c([nH]3)CCNC4=O)c2n1 [Example 101] | 0.0198 | 0.0809
14 | Cc1nc2cccc(-c3cc4c([nH]3)CCNC4=O)c2nc1N[C@H](C)C(N)=O [Example 128, (R)-2-((3-methyl-8-(4-oxo-4,5,6,7-tetrahydro-1H-pyrrolo[3,2-c]pyridin-2-yl)quinoxalin-2-yl)amino)propanamide] | 0.204 | 0.222
15 | O=C1NCCc2[nH]c(-c3cccc4ccc(Oc5cccc(Cl)c5)nc34)cc21 [Example 41, 2-(2-(3-chlorophenoxy)-8-quinolinyl)-1,5,6,7-tetrahydro-4H-pyrrolo[3,2-c]pyridin-4-one] | 0.0136 | 0.068
16 | O=c1[nH]cnc2[nH]c(-c3cccc4ccc(Cl)nc34)cc12 [Example 19, 6-(2-chloroquinolin-8-yl)-3H-pyrrolo[2,3-d]pyrimidin-4(7H)-one trifluoroacetate] | 0.133 | 0.908
17 | O=C1NCCc2[nH]c(-c3cccc4ccc(-c5c(F)cccc5F)nc34)cc21 [Example 231, 2-(2-(2,6-difluorophenyl)quinolin-8-yl)-6,7-dihydro-1H-pyrrolo[3,2-c]pyridin-4(5H)-one] | 0.0081 | 0.0919
18 | O=C1NCCc2[nH]c(-c3cccc4ccc(Nc5cncnc5)nc34)cc21 [Example 13, 2-(2-(pyrimidin-5-ylamino)quinolin-8-yl)-6,7-dihydro-1H-pyrrolo[3,2-c]pyridin-4(5H)-one] | 0.0008 | 0.0028
19 | COC(=O)N(c1ccccc1)c1ccc2cccc(-c3cc4c([nH]3)CCNC4=O)c2n1 [Example 46, Methyl (8-(4-oxo-4,5,6,7-tetrahydro-1H-pyrrolo[3,2-c]pyridin-2-yl)-2-quinolinyl)phenylcarbamate] | 0.0581 | 0.125
20 | COc1ccc(Cl)cc1-c1ccc2cccc(-c3cc4c([nH]3)CCNC4=O)c2n1 [Example 88, 2-(2-(5-chloro-2-methoxyphenyl)quinolin-8-yl)-6,7-dihydro-1H-pyrrolo[3,2-c]pyridin-4(5H)-one] | 0.0421 | 0.166
21 | C[C@@H](Nc1ccc2cccc(-c3cc4c([nH]3)CCNC4=O)c2n1)c1ccccc1 [Example 111, (R)-2-(2-((1-phenylethyl)amino)quinolin-8-yl)-6,7-dihydro-1H-pyrrolo[3,2-c]pyridin-4(5H)-one] | 0.019 | 0.181
22 | O=C1NCCc2[nH]c(-c3cccc4ccc(-c5ccccc5)nc34)cc21 [Example 226, 2-(2-phenylquinolin-8-yl)-6,7-dihydro-1H-pyrrolo[3,2-c]pyridin-4(5H)-one] | 0.0253 | 0.0381
23 | O=C1NCCc2[nH]c(-c3cccc4ccc(OCc5ccccc5)nc34)cc21 [Example 20, 2-(2-(benzyloxy)quinolin-8-yl)-6,7-dihydro-1H-pyrrolo[3,2-c]pyridin-4(5H)-one] | 0.0385 | 0.0984
24 | O=c1[nH]ccc2[nH]c(-c3cccc4ccc(Oc5ccccc5)nc34)cc12 [Example 225, 2-(2-phenoxyquinolin-8-yl)-1H-pyrrolo[3,2-c]pyridin-4(5H)-one] | 0.0159 | 0.0437
25 | Cc1nc2cccc(-c3cc4c([nH]3)CCNC4=O)c2nc1N1CCOCC1 [Example 133, 2-(2-methyl-3-morpholinoquinoxalin-5-yl)-6,7-dihydro-1H-pyrrolo[3,2-c]pyridin-4(5H)-one] | 0.0934 | 0.0998
26 | COC(=O)[C@@H](C)Nc1nc2c(-c3cc4c([nH]3)CCNC4=O)cccc2nc1C [Example 137, (R)-methyl 2-((3-methyl-8-(4-oxo-4,5,6,7-tetrahydro-1H-pyrrolo[3,2-c]pyridin-2-yl)quinoxalin-2-yl)amino)propanoate] | 0.0967 | 0.0741
27 | Nc1ccc(-c2ccc3cccc(-c4cc5c([nH]4)CCNC5=O)c3n2)c(F)c1 [Example 91, 2-(2-(4-amino-2-fluorophenyl)quinolin-8-yl)-6,7-dihydro-1H-pyrrolo[3,2-c]pyridin-4(5H)-one] | 0.0106 | 0.0461
